According to PubChem BioAssay AID200 (DTP/NCI, 2004):
Where “and” joins values, the source holds several entries; their conditions need not be identical. Identical values can stand only once. Toxic doses and inconclusive results are not listed. *1 amine or outer side, *2 acyl side, *3 side chain or, on linkers, in order; H or OH if unused. Where a SMILES comes first, the peptide text is derived from it. Bridges are numbered along the chain shown (N, C = ends). Roman numbers before positions name the chains, in order. [ ]: non-standard residue; d: D form. The star is where a group is joined. ξ: configuration not given here. Quinaldoyl(3-OH,6-OMe) = COc1ccc2nc(C(=O)*)c(O)cc2c1; X6 = CCC(=O)OC1CC=NN([*:1])C1C(=O)[*:2]; X7 = CC(=O)OC1CC=NN([*:1])C1C(=O)[*:2]; ξNMeVal(3-OH) = CNC(C(=O)O)C(C)(C)O; Sar = CNCC(=O)O

Test system: B6C3F1 mice, B16 melanoma ip, median survival T/C
Assay: NCI In Vivo Anticancer Drug Screen. Data for tumor model B16 Melanoma (intraperitoneal) in B6C3F1 mice
Settings: endpoint: median survival time, schedule: Q01DX009 (ip), higher = longer survival
Method in brief: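 Tumor-bearing mice received test compound; a separate group got vehicle only. Survival was then compared, with results reported as treated over control.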

[1] = dose: 50.0 mg/kg/injection, vehicle: saline with Tween-80
[2] = dose: 100.0 mg/kg/injection, vehicle: saline with Tween-80
[3] = dose: 12.5 mg/kg/injection, vehicle: Klucel (hydroxypropylcellulose) (HPC)
[4] = dose: 25.0 mg/kg/injection, vehicle: Klucel (hydroxypropylcellulose) (HPC)
[5] = dose: 50.0 mg/kg/injection, vehicle: Klucel (hydroxypropylcellulose) (HPC)
[6] = dose: 100.0 mg/kg/injection, vehicle: Klucel (hydroxypropylcellulose) (HPC)
[7] = dose: 200.0 mg/kg/injection, vehicle: Klucel (hydroxypropylcellulose) (HPC)
[8] = dose: 400.0 mg/kg/injection, vehicle: Klucel (hydroxypropylcellulose) (HPC)
[9] = dose: 200.0 mg/kg/injection, vehicle: saline with Tween-80
[10] = dose: 12.5 mg/kg/injection, vehicle: saline with Tween-80
[11] = dose: 25.0 mg/kg/injection, vehicle: saline with Tween-80
[12] = dose: 6.25 mg/kg/injection, vehicle: saline

Compound: CCN(CC)CCCC(C)Nc1c2ccc(Cl)cc2nc2ccc(OC)cc12 (configuration not stated)
- T/C (dose: 3.75 mg/kg/injection, vehicle: Klucel (hydroxypropylcellulose) (HPC)): 102 % of control
- T/C (dose: 7.5 mg/kg/injection, vehicle: Klucel (hydroxypropylcellulose) (HPC)): 98 % of control
- T/C (dose: 15.0 mg/kg/injection, vehicle: Klucel (hydroxypropylcellulose) (HPC)): 109 % of control
- T/C (dose: 30.0 mg/kg/injection, vehicle: Klucel (hydroxypropylcellulose) (HPC)): 121 % of control

Compound: Cc1ccc(C(=O)NC2C(=O)NC(C(C)C)C(=O)N3CCCC3C(=O)N(C)CC(=O)N(C)C(C(C)C)C(=O)OC2C)c2c1Oc1c(c(C(=O)NC3C(=O)NC(C(C)C)C(=O)N4CCCC4C(=O)N(C)CC(=O)N(C)C(C(C)C)C(=O)OC3C)c3nc(-c4ccccc4)c(=O)oc3c1C)N2 (configuration not stated)
- T/C (dose: 0.5 mg/kg/injection, vehicle: water): 157 % of control

Compound: CCc1cccc(CC)c1-n1c(C)ccc1-c1ccccc1
- T/C [1]: 100 % of control
- T/C [2]: 107 % of control

Compound: CN=C(NC#N)NCCSCc1nc[nH]c1C
- T/C [3]: 114 % of control
- T/C [4]: 96 % of control
- T/C [5]: 104 % of control
- T/C [6]: 101 % of control
- T/C [7]: 102 % of control
- T/C [8]: 98 % of control

Compound: Cn1nnc2c1C(=O)c1ccccc1C2=O
- T/C [1]: 88 % of control
- T/C [2]: 90 % of control
- T/C [9]: 89 % of control

Compound: CC(=O)Nc1ccc(/C=N/Nc2ccc([N+](=O)[O-])cn2)cc1
- T/C [10]: 89 % of control
- T/C [11]: 89 % of control

Compound: C1OCN2CSCC12 (configuration not stated)
- T/C [10]: 106 % of control
- T/C [11]: 94 % of control and 99 % of control
- T/C [1]: 92 % of control and 99 % of control
- T/C [2]: 108 % of control and 109 % of control
- T/C [9]: 109 % of control and 90 % of control

Compound: CCN(CC)c1ccc2cc(-c3nc4ccccc4n3C)c(=O)oc2c1
- T/C (dose: 6.25 mg/kg/injection, vehicle: Klucel (hydroxypropylcellulose) (HPC)): 94 % of control and 101 % of control
- T/C [3]: 102 % of control and 106 % of control
- T/C [4]: 108 % of control and 111 % of control

Compound: CC(C)(C)OC(=O)NC(CSCc1ccccc1)C(=O)ON1C(=O)CCC1=O (configuration not stated)
- T/C [6]: 94 % of control
- T/C [7]: 100 % of control

Compound: CC1OC2CC(=O)OC2C2=C1C(=O)c1cc(-c3cc(O)c4c(c3)C(=O)C3=C(C4=O)C4OC(=O)CC4OC3C)cc(O)c1C2=O (configuration not stated)
- T/C (dose: 0.5 mg/kg/injection, vehicle: other): 90 % of control

Compound: C[n+]1c(-c2cccc(OCCCCCCCOc3cccc(-c4c5cc(N)ccc5c5ccc(N)cc5[n+]4C)c3)c2)c2cc(N)ccc2c2ccc(N)cc21
- T/C (dose: 0.02 mg/kg/injection, vehicle: water): 98 % of control
- T/C (dose: 0.04 mg/kg/injection, vehicle: water): 109 % of control

Compound: CCN(CC)CC[n+]1ccc2c(C)c3[nH]c4ccc(O)cc4c3c(C)c2c1
- T/C (dose: 3.12 mg/kg/injection, vehicle: saline): 175 % of control
- T/C [12]: 151 % of control and 171 % of control
- T/C (dose: 6.25 mg/kg/injection, vehicle: suspension in saline): 151 % of control

Compound: Cc1ccc2c(c1)n([O-])c1cc(Cl)ccc1[n+]2=O
- T/C [10]: 105 % of control
- T/C [11]: 101 % of control
- T/C [1]: 122 % of control
- T/C [9]: 111 % of control

Compound: Cc1cc2c(C(C)C)c(O)c(O)c(C=NCCO)c2c(O)c1-c1c(C)cc2c(C(C)C)c(O)c(O)c(C=NCCO)c2c1O
- T/C [11]: 109 % of control and 111 % of control and 103 % of control
- T/C [1]: 108 % of control and 109 % of control and 91 % of control
- T/C [2]: 109 % of control and 121 % of control and 101 % of control
- T/C [9]: 114 % of control and 120 % of control
- T/C (dose: 400.0 mg/kg/injection, vehicle: saline with Tween-80): 153 % of control

Compound: C=C(c1ccc(OC)c(OC)c1)c1nccc2cc(OC)c(OC)cc12
- T/C [5]: 103 % of control
- T/C [6]: 98 % of control
- T/C [7]: 87 % of control
- T/C [8]: 97 % of control
- T/C (dose: 800.0 mg/kg/injection, vehicle: Klucel (hydroxypropylcellulose) (HPC)): 90 % of control

Compound: COc1ccc2ccccc2c1C1NC(=O)c2ccccc2N1 (configuration not stated)
- T/C [3]: 96 % of control
- T/C [4]: 100 % of control
- T/C [5]: 96 % of control
- T/C [6]: 100 % of control
- T/C [7]: 104 % of control
- T/C [8]: 102 % of control

Compound: CCCCCCCCCCS(=O)CC(CO)NC(=O)/C=C/c1c(C)[nH]c(=O)[nH]c1=O (configuration not stated)
- T/C (dose: 0.37 mg/kg/injection, vehicle: distilled water + Tween-80): 106 % of control
- T/C (dose: 0.37 mg/kg/injection, vehicle: water): 106 % of control
- T/C (dose: 0.75 mg/kg/injection, vehicle: distilled water + Tween-80): 95 % of control
- T/C (dose: 0.75 mg/kg/injection, vehicle: water): 106 % of control
- T/C (dose: 1.5 mg/kg/injection, vehicle: distilled water + Tween-80): 94 % of control
- T/C (dose: 1.5 mg/kg/injection, vehicle: water): 108 % of control
- T/C (dose: 3.0 mg/kg/injection, vehicle: distilled water + Tween-80): 100 % of control
- T/C (dose: 3.0 mg/kg/injection, vehicle: water): 117 % of control
- T/C (dose: 6.0 mg/kg/injection, vehicle: distilled water + Tween-80): 109 % of control
- T/C (dose: 6.0 mg/kg/injection, vehicle: water): 114 % of control

Compound: CCC(=O)OC1CC=NN2C(=O)C(NC(=O)c3nc4ccc(OC)cc4cc3O)COC(=O)C(C(C)(C)O)N(C)C(=O)CN(C)C(=O)CNC(=O)C3C(OC(C)=O)CC=NN3C(=O)C(NC(=O)c3nc4ccc(OC)cc4cc3O)COC(=O)C(C(C)(C)O)N(C)C(=O)CN(C)C(=O)CNC(=O)C12 (configuration not stated) (I: {Quinaldoyl(3-OH,6-OMe)}-S[X6]G[Sar][ξNMeVal(3-OH)] / II: {Quinaldoyl(3-OH,6-OMe)}-S[X7]G[Sar][ξNMeVal(3-OH)]; ester I:1-II:C, I:C-II:1; configuration not given here)
- T/C (dose: 4.0 micrograms/kg/injection, vehicle: saline): 98 % of control
- T/C (dose: 8.0 micrograms/kg/injection, vehicle: saline): 105 % of control
- T/C (dose: 16.0 micrograms/kg/injection, vehicle: saline): 111 % of control

Compound: CC1(C)COCN1COCCOCN1COCC1(C)C
- T/C [12]: 94 % of control
- T/C (dose: 12.5 mg/kg/injection, vehicle: saline): 96 % of control
- T/C (dose: 25.0 mg/kg/injection, vehicle: saline): 101 % of control
- T/C (dose: 50.0 mg/kg/injection, vehicle: saline): 115 % of control
- T/C (dose: 100.0 mg/kg/injection, vehicle: saline): 113 % of control
